33 compounds from patent US11440909B2, “10H-phenothiazine ferroptosis inhibitor as well as the preparative method and the use thereof” (CHENGDU HENGHAO INVESTMENT CO. LIMITED, priority 2018, dated 2022) can be followed below.

The EC50 is the concentration that produces a half-maximal response.

The subject of the first experiment is fibrosarcoma cell line HT1080. The experiment can be described thus: Ferroptosis screening model (MTT method), Erastin-induced ferroptosis. The class given is cell-based, human. Particulars: HT1080, ferroptosis inducer Erastin, 72 h, average of three tests, read-out: EC50. The protocol:
The screening model for ferroptosis mainly used MTT method. First, the fibrosarcoma cell line HT1080 was cultured in a dish, and the cells in the logarithmic growth phase were inoculated into a 96-well plate in a certain number (3000-10000 cells/well), 100 μL per well, and then the plate was put in an 5% CO2 incubator at 37° C., to allow the cells to adhere. After 24 h, 100 μL compound solution at a certain concentration prepared in the designated medium and ferroptosis inducer Erastin (with a final concentration of […]) were added, setting 3 replicate wells for each compound to ensure the accuracy of the results, and a negative control group, a positive control group (Fer-15 μM), a blank control group and a solvent control group were included. After addition of drugs, the plate was placed in an incubator and cultivated for 72 h. On the day of MTT experiment, MTT test solution (5 mg/mL MTT solution dissolved in physiological saline, and stored in the dark at 4° C.) was pre-prepared and 20 μL MTT solution was added to each well, then the plate was put in an incubator and continued to incubate for 2-4 h. After that, 50 μL of 20% SDS solution (dissolved in MiliiQ water, added with 1% concentrated hydrochloric acid) was added to each well and kept in an incubator overnight. On the next day, the absorbance at 570 nm was measured with a microplate reader, to calculate the inhibition rate of drugs on ferroptosis. Generally, the absorbance value of the control group should be in the range of 0.8-1.2 as a normal value.
GraphPadPrism5 software was used to fit the change curve of inhibition rate and calculate the EC50.
(Tetrazolium dyes change colour on reduction, which living cells bring about.)
As for `C=C(c1cnc(N2CCOCC2)nc1)c1ccc2c(c1)Nc1ccccc1S2` [Compound C51, 4-(5-(1-(10H-phenothiazin-2-yl)ethenyl)pyrimidin-2-yl)morpholine], the EC50 came out at 143 nM.
Regarding `CC(C)Oc1ccc(C(C)c2ccc3c(c2)Nc2ccccc2S3)cc1` (stereo not drawn) [Compound A34, 2-(1-(4-isopropoxylphenyl)ethyl)-10H-phenothiazine], the EC50 came to 65 nM.
On to `CC(c1ccc2c(c1)Nc1ccccc1S2)S(=O)(=O)N1CCN(c2ccccc2)CC1` (stereo not drawn) [Compound C28, 2-(1-((4-phenylpiperazin-1-yl)sulfonyl)ethyl)-10H-phenothiazine], for which the EC50 was 142 nM.

The experiment is the same for the next values; noted with them: Homo sapiens, HT-1080, 72 h, HT1080, ferroptosis inducer Erastin, 72 h, average of three tests, read-out: EC50.
For the compound `CC1CCCN(S(=O)(=O)C(C)c2ccc3c(c2)Nc2ccccc2S3)C1` (stereo not drawn) [Compound C46, 2-(1-((3-methylpiperidin-1-yl)sulfonyl)ethyl)-10H-phenothiazine], the EC50 came out at 156 nM.
For the compound `CC(C)Cc1ccc(C(C)c2ccc3c(c2)Nc2ccccc2S3)cc1` (stereo not drawn) [Compound A28, 2-(1-(4-isobutylphenyl)ethyl)-10H-phenothiazine], the EC50 came to 8 nM.
`CC(=O)N1CCN(S(=O)(=O)C(C)c2ccc3c(c2)Nc2ccccc2S3)CC1` (stereo not drawn) [Compound C15, 1-(4-((1-(10H-phenothiazin-2-yl)ethyl)sulfonyl)piperazin-1-yl)-1-ethanone]: the EC50 is 132 nM.
`CC(c1ccc2c(c1)Nc1ccccc1S2)S(=O)(=O)N1CCCC(O)C1` (stereo not drawn) [Compound C40, 1-((1-(10H-phenothiazin-2-yl)ethyl)sulfonyl)piperidin-3-ol]: the EC50 worked out at 142 nM.
For `CCCc1ccc(C(C)c2ccc3c(c2)Nc2ccccc2S3)cc1` (stereo not drawn) [Compound A25, 2-(1-(4-propylphenyl)ethyl)-10H-phenothiazine], the EC50 turned out to be 21 nM.
Consider `C=C(c1cccc(-c2ccccc2)c1)c1ccc2c(c1)Nc1ccccc1S2` [Compound B29, 2-(1-([1,1′-diphenyl]-3-yl)ethenyl)-10H-phenothiazine], for which the EC50 was found to be 41 nM.
Regarding `CC(c1ccc2c(c1)Nc1ccccc1S2)c1ccc(F)c(OCc2ccccc2)c1` (stereo not drawn) [Compound A55, 2-(1-(3-(benzyloxyl)-4-fluorophenyl)ethyl)-10H-phenothiazine], the EC50 amounted to 59 nM.
On to `CC(c1ccc2c(c1)Nc1ccccc1S2)S(=O)(=O)N1CCN(C)CC1` (stereo not drawn) [Compound C2, 2-(1-((4-methylpiperazin-1-yl)sulfonyl)ethyl)-10H-phenothiazine], for which the EC50 was determined as 34 nM.
With `C=C(c1cccc(OCc2ccccc2)c1)c1ccc2c(c1)Nc1ccccc1S2` [Compound B35, 2-(1-(3-(benzyloxyl)phenyl)ethenyl)-10H-phenothiazine], the EC50 came out at 53 nM.
Regarding `C=C(c1ccc(C#N)c(C)c1)c1ccc2c(c1)Nc1ccccc1S2` [Compound B37, 4-(1-(10H-phenothiazin-2-yl)ethenyl)-2-methylbenzonitrile], the EC50 stood at 14 nM.
As to `CC1CCN(S(=O)(=O)C(C)c2ccc3c(c2)Nc2ccccc2S3)CC1` (stereo not drawn) [Compound C45, 2-(1-((4-methylpiperidin-1-yl)sulfonyl)ethyl)-10H-phenothiazine], the EC50 came out at 226 nM.
As for `COc1ccc(C(C)c2ccc3c(c2)Nc2ccccc2S3)cc1C` (stereo not drawn) [Compound A49, 2-(1-(4-methoxyl-3-methylphenyl)ethyl)-10H-phenothiazine], the EC50 worked out at 19 nM.
For the compound `C=C(c1cnc(N2CCCN(C)CC2)nc1)c1ccc2c(c1)Nc1ccccc1S2` [Compound B50, 2-(1-(2-(4-methyl-1,4-homopiperazin-1-yl)pyrimidin-5-yl)ethenyl)-10H-phenothiazine], the EC50 came to 4 nM.
On to `CC(c1ccc2c(c1)Nc1ccccc1S2)S(=O)(=O)N1CC[C@H](NC(=O)OC(C)(C)C)C1` (stereo partly drawn) [Compound C31, t-butyl ((3S)-1-((1-(10H-phenothiazin-2-yl)ethyl)sulfonyl)pyrrolin-3-yl)carbamate], for which the EC50 was determined as 399 nM.
The same measure, in the same setting: next, `C=C(c1ccc(N2CCOCC2)nc1)c1ccc2c(c1)Nc1ccccc1S2` [Compound B45, 4-(5-(1-(10H-phenothiazin-2-yl)ethenyl)pyridin-2-yl)morpholine]: 13 nM.
Same read-out and setting: next, `CC(c1ccc(Cl)c(F)c1)c1ccc2c(c1)Nc1ccccc1S2` (stereo not drawn) [Compound A44, 2-(1-(4-chloro-3-fluorophenyl)ethyl)-10H-phenothiazine]: 19 nM; `CC(C)c1cccc(C(C)c2ccc3c(c2)Nc2ccccc2S3)c1` (stereo not drawn) [Compound A10, 2-(1-(3-isopropylphenyl)ethyl)-10H-phenothiazine]: 12 nM; `CC(c1ccc2c(c1)Nc1ccccc1S2)c1ccc(Cl)c(C(F)(F)F)c1` (stereo not drawn) [Compound A43, 2-(1-(4-chloro-3-(trifluoromethyl)phenyl)ethyl)-10H-phenothiazine]: 17 nM.
As to `C=C(c1ccc([N+](=O)[O-])c(C)c1)c1ccc2c(c1)Nc1ccccc1S2` [Compound B38, 2-(1-(3-methyl-4-nitrophenyl)ethenyl)-10H-phenothiazine], the EC50 came out at 35 nM.
Take `CCOc1cc(F)cc(C(C)c2ccc3c(c2)Nc2ccccc2S3)c1` (stereo not drawn) [Compound A61, 2-(1-(3-ethoxyl-5-fluorophenyl)ethyl)-10H-phenothiazine]: the EC50 came to 34 nM.
For `C=C(c1cccc(C(F)F)c1)c1ccc2c(c1)Nc1ccccc1S2` [Compound B34, 2-(1-(3-(difluoromethyl)phenyl)ethenyl)-10H-phenothiazine], the EC50 was found to be 11 nM.
As to `COc1cc(C(C)c2ccc3c(c2)Nc2ccccc2S3)ccc1C` (stereo not drawn) [Compound A48, 2-(1-(3-methoxyl-4-methylphenyl)ethyl)-10H-phenothiazine], the EC50 was 22 nM.
With `Cc1ccc(C(C)c2ccc3c(c2)Nc2ccccc2S3)cc1C` (stereo not drawn) [Compound A46, 2-(1-(3,4-dimethylphenyl)ethyl)-10H-phenothiazine], the EC50 came to 21 nM.
As for `C=C(c1ccc(S(=O)(=O)N2CCOCC2)cc1)c1ccc2c(c1)Nc1ccccc1S2` [Compound B57, 4-((4-(1-(10H-phenothiazin-2-yl)ethenyl)phenyl)sulfonyl)morpholine], the EC50 was 34 nM.
As to `CC(c1ccc2c(c1)Nc1ccccc1S2)S(=O)(=O)N1CCN(c2cnccn2)CC1` (stereo not drawn) [Compound C57, 2-(1-((4-(pyrazin-2-yl)piperazin-1-yl)sulfonyl)ethyl)-10H-phenothiazine], the EC50 is 129 nM.
Consider `CC(c1ccc2c(c1)Nc1ccccc1S2)S(=O)(=O)N1CCN(CC(=O)N2CCCC2)CC1` (stereo not drawn) [Compound C6, 2-(4-((1-(10H-phenothiazin-2-yl)ethyl)sulfonyl)piperazin-1-yl)-1-(pyrrolin-1-yl)-1-ethanone], for which the EC50 was 185 nM.
On to `CC(c1ccc2c(c1)Nc1ccccc1S2)S(=O)(=O)N1CCC(O)(c2ccc(Cl)cc2)CC1` (stereo not drawn) [Compound C30, 1-((1-(10H-phenothiazin-2-yl)ethyl)sulfonyl)-4-(4-chlorophenyl)-4-piperidinol], for which the EC50 is 95 nM.
For the compound `CC(c1cccc(OCc2ccccc2)c1)c1ccc2c(c1)Nc1ccccc1S2` (stereo not drawn) [Compound A13, 2-(1-(3-(benzyloxyl)phenyl)ethyl)-10H-phenothiazine], the EC50 turned out to be 25 nM.
As for `Cc1cc(C(C)c2ccc3c(c2)Nc2ccccc2S3)ccn1` (stereo not drawn) [Compound A74, 2-(1-(2-methylpyridin-4-yl)ethyl)-10H-phenothiazine], the EC50 amounted to 3 nM.
As to `CC(c1ccc2c(c1)Nc1ccccc1S2)S(=O)(=O)N1CCN(c2ccc(F)cc2)CC1` (stereo not drawn) [Compound C34, 2-(1-((4-(4-fluorophenyl)piperazin-1-yl)sulfonyl)ethyl)-10H-phenothiazine], the EC50 amounted to 233 nM.
